Measurements reported in patent US11690841B2, “Glycolysis-activating agents for treatment or prevention of disease” (Queen Mary University of London, priority 2017, dated 2023).

Key:
[1] = tested on: Tregs; test: Treg trans-endothelial migration and chemotaxis transwell assays; assay type: cell-based, mouse; details: Tregs pre-treated with drug for 4 hours; through IFN-γ-treated EC monolayers or in response to CCL22 / CXCL10
Procedure: FIG. 1. Glycolysis fuels Treg migration. Ex vivo expanded Tregs pre-treated with the indicated drugs or vehicle for 4 hours were left to migrate through 3 μm-pore transwells layered with IFN-γ-treated syngeneic EC monolayers (A-B) or in response chemokine CCL22 through bare filter 5 μm-pore transwells (C-D). Results are expressed as percentage of migrated cells after 24 hours (A-B, n=4, N=2) or at the indicated time-points (C, n=3)±SD. The fold increase in migration was calculated by dividing experimental migration by spontaneous migration measured at 6 hours in two experiments of identical design performed in triplicates±SD.
FIG. 2. Activated Treg phenotype and function and effect of exposure to metabolism-modifying drugs. Tregs were expanded as previously described (Fu et al., 2014). A-B Tregs were treated with the indicated metabolism-targeting drugs for 4-6 hours and extensively washed. Migration of drug-exposed Tregs in response to CXCL10 (300 ng/ml) was assessed by a transwell-based assay. Results are expressed as the mean percentage of migrated cells at the indicated time points±SD. Data obtained at 6 hours from three independent experiments of identical design and normalized by spontaneous migration±SD are shown in panel B. *P<0.05.
FIG. 5. Tregs were treated with the indicated metabolism-targeting drugs for 4-6 hours, extensively washed and cultured overnight in medium alone. Migration of drug-exposed Tregs in response to CCL22 (300 ng/ml, A-B) CXCL10 (300 ng/ml, C-D) was assessed by a 6 hr chemokinesis transwell assay ([…]). Results are expressed as the mean percentage of migrated cells in a typical experiment performed in triplicate±SD (A, C). […]
Lymphocyte trans-endothelial migration and chemotaxis assays. […] The number of migrated T cells was determined by a hemocytometer counting of the cells present in the well media at different time points over a 24-h period. […] The number of migrated cells was determined by a hemocytometer.

[2] = tested on: Tregs; test: T cell recruitment in the peritoneum (labelled drug-treated Tregs injected into IFN-γ-treated syngeneic recipients); assay type: in vivo, mice; details: for Treg migration / trafficking in vivo: drug-treated PKH26-labelled Tregs injected i.v. into recipients given IFN-γ i.p. 48 hours earlier, harvested after 24 hours
Procedure: FIG. 3. Drug- or vehicle-treated Tregs labeled with the fluorescent intravital dye PKH26 were injected i.v. into syngeneic recipients treated with IFN-γ i.p. 48 hours earlier. Cells were harvested from the indicated tissues after 24 hours and analyzed by flow cytometry. Representative dot plots from 3 animals are shown in panels A and C. The mean absolute number of labeled cells recovered in 4 animals±SD is shown in panels B and D. (N=1)
(§1) FIG. 20. A: AZD1656 (GCK activator, 1 μM) and vehicle-treated Tregs (2 hours in insulin-free medium) were labeled with different intravital fluorescent dyes, and co-injected into syngeneic recipients that had received IFN-γ i.p. 48 hours earlier. Cells were recovered from the peritoneum or spleen after 24 hours and analyzed by flow cytometry. Representative dot plots are shown. The bar graphs indicate mean absolute number of labeled cells retrieved±SD (n=4 N=2). B-C: expression of PCNA by Tregs stimulated with allogeneic DCs following treatment with either AZD1656 (B) or Clotrimazole (CLT, 1 μM, 2 hours, C) or vehicle alone was measured by flow cytometry. NS, non-stimulated control Tregs. Representative histograms are shown. (n=3, N=3).
FIG. 21. A: ECAR of Treg cells activated with recombinant ICAM-1 or Fc control. CLT or vehicle, as well as other glycolysis-affecting drugs were added as indicated. B: CLT- or vehicle-treated Tregs underwent CD28 or isotype-matched antibody-stimulation, labelled with different intravital fluorescent dyes and injected i.v. in syngeneic recipients that had received IFN-γ i.p. 48 hours earlier. Cells were recovered from the peritoneum (P) or spleen (S) after 24 hours and analyzed by flow cytometry. Representative dot plots are shown. The column graphs indicate mean absolute number of labeled cells retrieved±SD (n=3 N=2). * p<0.05 ***p<0.005; ****p<0.001.
T cell recruitment in the peritoneum. To observe in vivo recruitment of T cells we used the previously described model of T cell recruitment (Mirenda et al., 2007). Either PKH26 or CFSE or DDAO-SE-labelled T cells (10^7) were injected intravenously (i.v.) into mice that hd received IFN-γ (600U) via intraperitoneal injection (i.p.) 48 to 72 hours earlier. Labeled T cells recovered via peritoneal lavage were analyzed 16 hours later using flow cytometry. In addition, localization of Tregs to the spleen, where entry occurs in a passive manner (Fu et al., 2016), was analyzed to ensure that similar numbers/proportion of labeled cells were injected or co-injected in all recipients (internal control).

[3] = tested on: CD3/CD28-stimulated Tconv cells; test: ECAR and OCR fluxometry (Seahorse) of anti-CD3 plus anti-CD28 stimulated CD4+ T cells; assay type: cell-based, mouse
Procedure: Real time analysis of the ECAR and OCR of CD4+ T cells stimulated for 24 hours with anti-CD3 plus anti-CD28 antibodies was performed using fluxometry. Wells were injected first with CLT or Vehicle. A second injection followed at the time point indicated (dashed line) introducing D-glucose into the wells. Subsequently, modulators of glycolysis (A) or cellular respiration (B) were sequentially injected at the indicated time points. […] OCR=Oxygen Consumption Rate: indirect measure of mitochondrial respiration and fatty acid oxidation (FAO). Measurement of ECAR and OCR. Real time bioenergetics analysis of extracellular acidification rates (ECAR) and oxygen consumption rates (OCR) of T cells subjected to antibody stimulation was performed using the XF analyzer (Seahorse biosciences). T cells were cultured in serum free, unbuffered XF assay medium (Seahorse biosciences, Cat #102365-100) for 1 hour. The cells were then seeded (6×10^5/well) into the seahorse XF24 cell plates for analysis. Perturbation profiling of the use of metabolic pathways by T cells was achieved by the addition of oligomycin (1 μM), FCCP (1 μM), Antimycin A (1 μM), rotenone (1 μM), D-glucose (10 mM), 2-Deoxy-D-glucose (2DG, 50 mM; all from Seahorse biosciences, Cat #103020-100 and 103015-100). […] Metabolic parameters were calculated. […]

[4] = tested on: Tregs; test: PCNA expression by Tregs stimulated with allogeneic DCs (flow cytometry); assay type: cell-based, mouse; details: 1 μM, 2 hours
Procedure: as §1
Intracellular staining. For intracellular Foxp3 staining, eBioscience Anti-Mouse/Rat Foxp3 Staining Set APC (clone FJK-165, Thermo Fisher Scientific Cat #17-5773-82) kit was used. Cells were resuspended (10^7/ml) and stained with surface antigens as mentioned above and then fixed/permeabilized for 30 minutes at 4° C. using Fixation/Permeabilization working solution made from mixing 1 part of the fixation/permebilization concentrate (eBioscience, Cat #00-5123) to 3 parts of the fixation/permebilization diluent (eBioscience, Cat #00-5223). […]

[5] = tested on: Tregs; test: ECAR of Treg cells activated with recombinant ICAM-1; assay type: cell-based, mouse; details: Tregs activated with recombinant ICAM-1
Procedure: A: ECAR of Treg cells activated with recombinant ICAM-1 or Fc control. CLT or vehicle, as well as other glycolysis-affecting drugs were added as indicated. […] Measurement of ECAR and OCR. Real time bioenergetics analysis of extracellular acidification rates (ECAR) and oxygen consumption rates (OCR) of T cells subjected to antibody stimulation was performed using the XF analyzer (Seahorse biosciences). T cells were cultured in serum free, unbuffered XF assay medium (Seahorse biosciences, Cat #102365-100) for 1 hour. The cells were then seeded (6×10^5/well) into the seahorse XF24 cell plates for analysis. Perturbation profiling of the use of metabolic pathways by T cells was achieved by the addition of oligomycin (1 μM), FCCP (1 μM), Antimycin A (1 μM), rotenone (1 μM), D-glucose (10 mM), 2-Deoxy-D-glucose (2DG, 50 mM; all from Seahorse biosciences, Cat #103020-100 and 103015-100). Experiments with the Seahorse system were done with the following assay conditions: 2 min mixture; 2 minutes wait; and 4-5 min measurement. Metabolic parameters were calculated. Experiments were done in at least triplicate wells.

[6] = tested on: B6Kd skin allograft; test: Survival of B6Kd-derived skin grafts transplanted in C57BL/6 recipients; assay type: in vivo, C57BL/6 mice; details: 10 mg/kg twice daily (20 mg/kg daily) for 2 weeks after transplantation
Text: C57B16 mice received a B6Kd skin graft or syngeneic skin as a control. […] To establish the selectivity of GCK usage by Tregs to sustain their motility, we compared the effect of pharmacological activation of GCK on the survival of B6Kd-derived skin grafts transplanted in C57BL/6 recipients. […] This schedule was designed in order to promote migration of endogenous Tregs during the early stages of the alloresponse. Control groups received saline solution with vehicle alone.

SMILES | Treg migration / motility in vitro [1] | Treg migration / trafficking in vivo [2] | Treg division (PCNA expression / upregulation) [4] | further results
CN(C)C(=N)N=C(N)N [metformin] | increased Treg motility | increased | – | –
Clc1ccccc1C(c1ccccc1)(c1ccccc1)n1ccnc1 [CLT, Clotrimazole] | – | – | effective at inhibiting | Glycolytic flux (ECAR) [3]: inhibits; Respiration (OCR) [3]: inhibits; Treg migration to inflamed peritoneum in vivo ([2]; drug-treated Tregs with CD28 or isotype antibody stimulation, injected i.v., recovered after 24 hours): did not affect; rICAM-1-mediated induction of glycolysis (ECAR) [5]: did not affect
COC[C@H](C)Oc1cc(Oc2cnc(C(=O)N3CCC3)cn2)cc(C(=O)Nc2cnc(C)cn2)c1 [AZD1656, 3-[5-(azetidine-1-carbonyl)pyrazin-2-yl]oxy-5-[(2S)-1-methoxypropan-2-yl]oxy-N-(5-methylpyrazin-2-yl)benzamide] | – | – | did not affect | Skin graft rejection [6]: significantly delays; Treg migration to the inflamed tissue ([2]; Tregs treated with 1 μM for 2 hours in insulin-free medium, co-injected with vehicle-treated Tregs, peritoneum after 24 hours): significantly enhanced
CCOC(=O)[C@@]1(CCCCCCOc2ccc(Cl)cc2)CO1 [Etomoxir] | Treg migration does not require fatty acid oxidation | – | – | –
O=CC[C@@H](O)[C@H](O)[C@H](O)CO [2-DG, 2-deoxyglucose] | migrated inefficiently | migrated inefficiently | – | –
